# Legend:
# Format in all cases: in vivo, mouse
# MMP9 = MMP9 activity by zymogram PAGE, aortas of aged mice; details: zymography
# Experimental: (§1) Animal study protocols. This example was performed according to the guide lines of the National Institute of Health on the care and use of laboratory animals and approved by the institutional Animal Care and Use Committee of University of Oklahoma Health Science Center. AU mice were housed in cages at room temperature (2S±PC) and were provided with Purina laboratory chow No 5001) and tap Water and lithium. 6 adult mice (12 months) and 20 old mice (24-26 months) mice were next in this study. The old (aged) mice were randomly divided into three subgroups and each group had 6 or 7 mice. One subgroup received compound H (10 mg/kg/day1, IP, Enamine LLC, Monmouth Jct., NJ) and one group received an equal volume of DMSO (dimethyl sulfoxide, 5%) and served as a control. The third group received no treatment Blood pressure was measured before and after treatment with the active agent at 1 week and 2 week. Pulse wave velocity (PWV) was measured after 2 weeks treatment with active agent all animals were sacrificed and perfused transcardially with PBS under deep anesthesia (ketamine xylazine, 90/10 mg, IP). […]
# Measurements for MMP2 and MMP9 Activity. MMP2 and MMP9 activity were measured by Zymogram PAGE (Bio˜-Rad). Briefly Lysates from thoracic aorta were quantified using BCA assay (Pierce) and prepared under non-reducing, non-denaturing conditions. […]
# SIRT1 = assay: Western blot of SIRT1 and acetyl p53, aortas of aged mice
# Experimental: as §1
# Western Blot Analysis: Protein samples from the thoracic aorta were prepared in Lysis buffer as described previously. […] Protein abundance on western blots was quantified densitometry using Image lab software (Bio-Rad, Hercules, CA).
# AMPK = assay: Western blot of AMPK and p-AMPK, aortas of aged mice
# Experimental: (§2) Animal study protocols. This example was performed according to the guide lines of the National Institute of Health on the care and use of laboratory animals and approved by the institutional Animal Care and Use Committee of University of Oklahoma Health Science Center. AU mice were housed in cages at room temperature (2S±PC) and were provided with Purina laboratory chow No 5001) and tap Water and lithium. 6 adult mice (12 months) and 20 old mice (24-26 months) mice were next in this study. The old (aged) mice were randomly divided into three subgroups and each group had 6 or 7 mice. One subgroup received compound H (10 mg/kg/day1, IP, Enamine LLC, Monmouth Jct., NJ) and one group received an equal volume of DMSO (dimethyl sulfoxide, 5%) and served as a control. The third group received no treatment Blood pressure was measured before and after treatment with the active agent at 1 week and 2 week. Pulse wave velocity (PWV) was measured after 2 weeks treatment with active agent all animals were sacrificed and perfused transcardially with PBS under deep anesthesia (ketamine xylazine, 90/10 mg, IP). The aortas were then quickly removed, washed and cut into pieces for subsequent analyses.
# (§3) Western Blot Analysis: Protein samples from the thoracic aorta were prepared in Lysis buffer as described previously. The proteins ([…] were resolved by SOS-PAGE and transferred to a nitrocellulose membrane (Bio-Rad). The membrane was then incubated overnight (4° C.) with a primary antibody against collagen-1-elastin. M1′v1P2; MMP9, ALP (Abeam1 1:1000), TGF-1, TGF˜N3 (Santa Cmz, 1:100). RUX2, or aNTulmliu (Cell Signaling. 1:1000). Goat autimouse or goat anti rabbit horseradish peroxidase (1:2000 . . . 1:5,000; Santa Cruz Biotechnology) was used as a secondary antibody find incubated for 1 hour at room temperature. Specific proteins were detected by chemiluminescent methods using Amersham™ western blotting detection reagents (GE Healthcare, UK). Protein abundance on western blots was quantified densitometry using Image lab software (Bio-Rad, Hercules, CA).
# eNOS = assay: Western blot of eNOS and p-eNOS, aortas of aged mice
# Experimental: as §2, §3
compound,measurement,setting,value
"O=C(Nc1ccccc1Cl)c1c[nH]c2ccccc12 [active agent, N-(2-chlorophenyl)-Ul-indde-3-carboxamide]",MMP9 activity,MMP9,decreased
same,SirT1 activity (deacetylation of p53),SIRT1; aorta of old mice,increased
same,SIRT1 expression,SIRT1; aortas of aged mice,did not affect
same,AMPK activity,AMPK; aortas of aged mice,increased
same,AMPK expression,"AMPK; old mice, western blot",increased
same,p-AMPK expression,"AMPK; old mice, western blot",increased
same,eNOS activity,eNOS; aortas of aged mice,increased
same,eNOS expression,"eNOS; old mice, western blot",increased
same,p-eNOS expression,"eNOS; old mice, western blot",increased

# — patent US20240189278A1, “NOVEL COMPOUNDS AND METHODS FOR INCREASING KLOTHO GENE EXPRESSION” (Klotho Therapeutics, Inc., priority 2017, published 2024)
